Here are results for 4 molecules from US8217167B2, “Phenanthrylphenol linked pyrrolo [2, l-c] [l, 4] benzodiazepine hybrids as potential antitumour agents and process for the preparation thereof” (Council of Scientific & Industrial Research, priority 2008, dated 2012).

The test system of data set [1] is duplex-form calf thymus DNA (CT-DNA). The data set can be described thus: Thermal denaturation studies with calf thymus DNA. The conditions noted are these: [PBD]:[DNA] molar ratio 1:5, CT-DNA 100 μM, ligand 20 μM, sodium phosphate buffer pH 7.00; for ΔTm after incubation at 37° C. for 0 h: 0 h incubation at 37° C.; for ΔTm after incubation at 37° C. for 18 h: 18 h incubation at 37° C. The format is binding. The procedure:
Compounds have been subjected to thermal denaturation studies with duplex-form calf thymus DNA (CT-DNA) using a modification of a reported procedure (Newman, M. S. Carcinog-compr. Surv. 1976, 1, 203; (b) Hecht, S. S.; Loy, M.; Hoffman, Carcinog-compr. Surv. 1976, 1, 325). Working solutions in aqueous buffer (10 mM NaH2PO4/Na2HPO4, 1 mM Na2EDTA, pH 7.00+0.01) containing CT-DNA (100 μm in phosphate) and the PBD (20 μm) have been prepared by addition of concentrated PBD solutions in DMSO to obtain a fixed [PBD]/[DNA] molar ratio of 1:5. The DNA-PBD solutions have been incubated at 37° C. for 0 and 18 h prior to analysis. Samples have been monitored at 260 nm using a Beckman DU-800 spectrophotometer fitted with high performance temperature controller, and heated at 1° C. min^−1 in the 40-110° C. range. DNA helix→coil transition temperatures (Tm) have been obtained from the maxima in the d(A260)/dT derivative plots. Drug-induced alterations in DNA melting behavior are given by: ΔTm=Tm(DNA+PBD)−Tm(DNA alone), where the Tm value for the PBD-free CT-DNA is 69.1±0.01.
The DNA binding activity for these new C8-linked phenanthrylphenol-PBD hybrids has been examined by thermal denaturation studies using calf thymus (CT) DNA. […] The data for the compounds 6a-c is included in Table 1 for comparison.

Data set [2] relates to Colon cancer cell lines. In words: NCI in vitro anticancer activity (SRB assay), Colon panel. Type of data set: cell-based. The conditions noted are these: Homo sapiens. The protocol:
(§1) The compound 6a was evaluated for in vitro anticancer activity against sixty human tumour cells derived from nine cancer panels (leukemia, non-small-cell lung, colon, CNS, melanoma, ovarian, prostate, renal and breast cancer) as shown in Table 4. For compound 6a, dose response curves for each cell line were measured at a minimum of five concentrations at 10 fold dilutions. A protocol of 48 h continuous drug exposure was used and a sulforhodamine B (SRB) protein assay was used to estimate cell viability or growth. The concentration causing 50% cell growth inhibition (GI50), total cell growth inhibition (TGI 0% growth) and 50% cell death (LC50, […]) compared with the control was calculated.
(§2) Each cancer type represents the average of six to nine different cancer cell lines.

In data set [3] the test system is Prostate cancer cell lines. In words: NCI in vitro anticancer activity (SRB assay), Prostate panel. Type of data set: cell-based. The conditions noted are these: Homo sapiens. The protocol: as §1, §2
A general note: Sulforhodamine B stains cellular protein and so reports cell mass.

Data set [4] has as its system CNS cancer cell lines. The data set can be described thus: NCI in vitro anticancer activity (SRB assay), CNS panel. The format is cell-based. The conditions noted are these: Homo sapiens. The protocol: as §1, §2
The subject of data set [5] is Leukemia cancer cell lines. In words: NCI in vitro anticancer activity (SRB assay), Leukemia panel. The format is cell-based. The conditions noted are these: Homo sapiens. The procedure: as §1, §2
In data set [6] the test system is Melanoma cancer cell lines. In words: NCI in vitro anticancer activity (SRB assay), Melanoma panel. The format is cell-based. The conditions noted are these: Homo sapiens. The procedure:
as §1, §2

The test system of data set [7] is Breast cancer cell lines. In words: NCI in vitro anticancer activity (SRB assay), Breast panel. Type of data set: cell-based. The conditions noted are these: Homo sapiens. The protocol:
as §1, §2

For data set [8], the system named is Colon 502713. The format is cell-based. To be noted: human. The text has this: (§3) The compounds 6a-c (n=1-3) were examined for preliminary in vitro cytotoxicity on six cell lines, among these compound's 6a has shown promising activity as shown in Table 2 and was further taken up detailed in vitro anticancer activity at the National Cancer Institute, Maryland, USA.

Data set [9] relates to Neuroblastoma IMR-32. Type of data set: cell-based. To be noted: human.
Excerpt: as §3

Data set [10] deals with Lung A-549. Type of data set: cell-based. The conditions noted are these: human.
Excerpt: as §3

Data set [11] deals with Ovary OVCAR-5. Type of data set: cell-based. To be noted: human.
Excerpt: as §3

Data set [12] concerns Liver HEP-2. Type of data set: cell-based. The conditions noted are these: human.
Excerpt: as §3

In data set [13] the test system is Colon HCT-15. The format is cell-based. To be noted: human.
Excerpt: as §3

Data set [14] has as its system Non-small-cell-lung cancer cell lines. The data set can be described thus: NCI in vitro anticancer activity (SRB assay), Non-small-cell-lung panel. Type of data set: cell-based. The conditions noted are these: Homo sapiens. The protocol: as §1, §2
Data set [15] relates to sixty human tumour cells derived from nine cancer panels. In words: NCI in vitro anticancer activity (SRB assay), mean graph midpoints over sixty cell lines. Type of data set: cell-based. The protocol:
as §1

For data set [16], the system named is Renal cancer cell lines. In words: NCI in vitro anticancer activity (SRB assay), Renal panel. The format is cell-based. The conditions noted are these: Homo sapiens. The procedure: as §1, §2
The subject of data set [17] is Ovarian cancer cell lines. In words: NCI in vitro anticancer activity (SRB assay), Ovarian panel. The format is cell-based. To be noted: Homo sapiens. The protocol: as §1, §2
[18] abbreviates: 48 h, read-out: Log10 LC50 (concentration in mol/L causing 50% lethality) (converted).

As for `COc1cc2c(cc1O)N=CC1CCCN1C2=O` (centres unmarked) [DC-81, reference compound], in data set [1], the “ΔTm after incubation at 37° C. for 0 h” value was determined as 0.3 °C and the “ΔTm after incubation at 37° C. for 18 h” value amounted to 0.7 °C.
For the molecule `COc1cc2c(cc1OCCCOc1ccc(-c3cc4ccccc4c4ccccc34)cc1)N=C[C@@H]1CCCN1C2=O` [Compound 6a, (11aS)-7-methoxy-8-3-[4-(9-phenanthryl)phenoxy]propoxy-2,3,5,11a-tetrahydro-1H-benzo[e]pyrrolo[1,2-a][1,4]diazepin-5-one], the “ΔTm after incubation at 37° C. for 0 h” value in [1] was found to be 1.0 °C. In addition, the “ΔTm after incubation at 37° C. for 18 h” value in data set [1] is 1.8 °C. Moreover, the CC50 is 4900 nM in data set [2] (setting [18]); 15100 nM in data set [5] (setting [18]); 5500 nM in [15] (Homo sapiens, 48 h, read-out: Log10 LC50 mean graph midpoint (MG_MID) (converted)); 3720 nM in data set [17] (setting [18]). Moreover, the GI50 in [2] (Colon panel average, 48 h exposure, SRB, read-out: Log10 GI50 (concentration in mol/L) (converted)) is 776 nM; in [3] (Prostate panel average, 48 h exposure, SRB, read-out: Log10 GI50 (concentration in mol/L) (converted)) it was 398 nM; in [4] (CNS panel average, 48 h exposure, SRB, read-out: Log10 GI50 (concentration in mol/L) (converted)), 813 nM; in [5] (Leukemia panel average, 48 h exposure, SRB, read-out: Log10 GI50 (concentration in mol/L) (converted)) it was 195 nM; in data set [6] (Melanoma panel average, 48 h exposure, SRB, read-out: Log10 GI50 (concentration in mol/L) (converted)), 692 nM; in data set [7] (Breast panel average, 48 h exposure, SRB, read-out: Log10 GI50 (concentration in mol/L) (converted)), 339 nM. In addition, the GI50 is 776 nM in [14] (Non-small-cell-lung panel average, 48 h exposure, SRB, read-out: Log10 GI50 (concentration in mol/L) (converted)); 525 nM in [15] (48 h continuous drug exposure, SRB assay, mean over human tumour cell lines, read-out: Log10 GI50 mean graph midpoint (MG_MID) (converted)); 490 nM in data set [16] (Renal panel average, 48 h exposure, SRB, read-out: Log10 GI50 (concentration in mol/L) (converted)); 501 nM in [17] (Ovarian panel average, 48 h exposure, SRB, read-out: Log10 GI50 (concentration in mol/L) (converted)). Moreover, the LC50 (concentration causing 50% tumour cell death) in [3] (setting [18]) is 3890 nM. The LC50 is 4680 nM in data set [4] (setting [18]), 4680 nM in data set [6] (setting [18]) and 5370 nM in data set [14] (setting [18]). Further, the values for the LC50 (50% lethal concentration) in data set [7] (setting [18]) and in [16] (setting [18]) were 8710 nM and 3630 nM, respectively. In addition, the “Preliminary in vitro cytotoxicity data, Colon 502713” value (shortened to “Preliminary … Colon 502713”) in data set [8] is on record as 69. Further, the “Preliminary in vitro cytotoxicity data, Neuroblastoma IMR-32” value (“Preliminary … Neuroblastoma IMR-32” below) in data set [9] is recorded as 85. Also, the “Preliminary in vitro cytotoxicity data, Lung A-549” value (from here on “Preliminary … Lung A-549”) in [10] came out at 88. The “Preliminary in vitro cytotoxicity data, Ovary OVCAR-5” value (“Preliminary … Ovary OVCAR-5” for short) in data set [11] worked out at 98. In data set [12], the “Preliminary in vitro cytotoxicity data, Liver HEP-2” value (“Preliminary … Liver HEP-2” below) is 58. The “Preliminary in vitro cytotoxicity data, Colon HCT-15” value (“Preliminary … Colon HCT-15” for short) in data set [13] is reported as 99. In addition, the “Log10 TGI mean graph midpoint (MG_MID)” value in data set [15] (48 h continuous drug exposure, SRB assay, mean over human tumour cell lines) was −5.76.
Regarding `COc1cc2c(cc1OCCCCCOc1ccc(-c3cc4ccccc4c4ccccc34)cc1)N=C[C@@H]1CCCN1C2=O` [Compound 6c, (11aS)-7-methoxy-8-(5-[4-(9-phenanthryl)phenoxy]pentyloxy)-2,3,5,11a-tetrahydro-1H-benzo[e]pyrrolo[1,2-a][1,4]diazepin-5-one], in [1], the “ΔTm after incubation at 37° C. for 0 h” value came out at 0.1 °C and the “ΔTm after incubation at 37° C. for 18 h” value was found to be 0.2 °C. Besides, the “Preliminary … Colon 502713” value in [8] is given as 74. In addition, the “Preliminary … Neuroblastoma IMR-32” value in data set [9] amounted to 73. The “Preliminary … Lung A-549” value in [10] is 36. Also, the “Preliminary … Ovary OVCAR-5” value in [11] turned out to be 98. In addition, the “Preliminary … Liver HEP-2” value in data set [12] amounted to 65. In addition, the “Preliminary … Colon HCT-15” value in [13] was found to be 79.
With `COc1cc2c(cc1OCCCCOc1ccc(-c3cc4ccccc4c4ccccc34)cc1)N=C[C@@H]1CCCN1C2=O` [Compound 6b, (11aS)-7-methoxy-8-4-[4-(9-phenanthryl)phenoxy]butoxy-2,3,5,11a-tetrahydro-1H-benzo[e]pyrrolo[1,2-a][1,4]diazepin-5-one], in data set [1], the “ΔTm after incubation at 37° C. for 0 h” value is 0.3 °C and the “ΔTm after incubation at 37° C. for 18 h” value worked out at 0.5 °C. In addition, the “Preliminary … Colon 502713” value in data set [8] worked out at 72. Besides, the “Preliminary … Neuroblastoma IMR-32” value in data set [9] is on record as 67. In addition, the “Preliminary … Lung A-549” value in data set [10] came to 50. Moreover, in data set [11], the “Preliminary … Ovary OVCAR-5” value is 93. Also, in data set [12], the “Preliminary … Liver HEP-2” value was determined as 49. Besides, the “Preliminary … Colon HCT-15” value in data set [13] was determined as 77.
